Measured values from US20110190235A1, “BORON-CONTAINING SMALL MOLECULES AS ANTIPROTOZOAL AGENTS” (Anacor Pharmaceuticals, Inc., priority 2009, published 2011).

Test system: TREU 667 strain of T. b. brucei
Assay: Chronic CNS Model
Type: in vivo, T. b. brucei in mice
Experimental: Mice were infected with 10,000 parasites of the TREU 667 strain of T. b. brucei. Twenty one days post-infection mice were treated with a dose of between 6 and 100 mg/kg of the compound, either BID or QD for 7 days intraperitoneally (IP) or orally (PO). Positive control mice were treated with Diminazene (10 mg/kg, IP) on Day 4 post-infection. Negative control mice were treated with Diminazene (10 mg/kg, PO) on Day 21. Since Diminazene is not able to penetrate the CNS, mice treated at Day 21 are not able to cure the infection. Starting 1 week after the end of treatment, mice are monitored for parasitemia and sacrificed if parasites are detected in the blood. Mice that survive 6 months are considered “cured.”

SMILES | mice with absence of blood parasites through Day 84 (75 mg/kg BID for 7 days, starting at Day 21 post-infection) [%] | Day by which all animals relapsed to exhibit blood parasitemia (treated on Day 21 (10 mg/kg)) [days]
CC1(C)OB(O)c2cc(NC(=O)c3ccc(F)cc3C(F)(F)F)ccc21 | 100 | –
N=C(N)c1ccc(/N=N/Nc2ccc(C(=N)N)cc2)cc1 [Diminazene, diminazene, reference compound] | – | ≤ 49
